Reference: patent publication US9700543B2, “GLP-1 receptor stabilizers and modulators” (Celgene International II SÀRL, priority 2011, dated 2017)
pEC50: −log10 of the molar value.

Target: T1, GLP-1R (Homo sapiens, UniProt P43220)
T1 construct: host or cells: CRE-bla CHO-K1
Experiment: EC20 GLP-1(9-36) PAM cAMP assay: dose response of compound in the presence of fixed concentration of GLP-1(9-36)
Type: cell-based
Settings: compound dose response with fixed GLP-1(9-36), GLP-1R CRE-bla CHO-K1 cells; for EC20 GLP-1 (9-36) PAM Activity max cAMP: Emax as total cAMP; for pEC50: cAMP
Description: EC20GLP-1(9-36) PAM cAMP Assay: Dose Response of Compound in the Presence of Fixed Concentration of GLP-1 (9-36)
GLP-1R CRE-bla CHO-K1 cells were seeded into 384-well white flat bottom plates at 10,000 cells/well/20 μL growth medium (DMEM-High glucose, 10% dialyzed FBS, 0.1 mM NEAA, 25 mM Hepes, 100 U/mL penicillin/100 μg/mL streptomycin, 5 μg/mL Blasticidin, 600 μg/mL Hygromycin) and incubated for 18 h at 37° C. in 5% CO2. Growth medium was replaced with 12 μL assay buffer (Hanks Balanced Salt solution, 10 mM Hepes, 0.1% BSA, pH7.4). A 5× compound dose response curve (12-point) was generated in assay buffer containing 1.5 mM IBMX, 12.5% DMSO. GLP-1(9-36) was diluted to 4.2 μM in assay buffer containing 1.5 mM IBMX and 12.5% DMSO. The 5× compound dose response was added (3 μL), followed by 0.5 μL of GLP-1(9-36) and cells were incubated for 30 min at 37° C. Direct detection of cAMP was carried out using DiscoveRx HitHunter cAMP kit according to manufacturer's instructions and luminescence was read using a SpectraMax M5 plate reader. Luminescence was converted to total cAMP using a cAMP standard curve and data was analyzed by non-linear regression to determine the EC50 and Emax.

T1 sequence (P43220 24-463): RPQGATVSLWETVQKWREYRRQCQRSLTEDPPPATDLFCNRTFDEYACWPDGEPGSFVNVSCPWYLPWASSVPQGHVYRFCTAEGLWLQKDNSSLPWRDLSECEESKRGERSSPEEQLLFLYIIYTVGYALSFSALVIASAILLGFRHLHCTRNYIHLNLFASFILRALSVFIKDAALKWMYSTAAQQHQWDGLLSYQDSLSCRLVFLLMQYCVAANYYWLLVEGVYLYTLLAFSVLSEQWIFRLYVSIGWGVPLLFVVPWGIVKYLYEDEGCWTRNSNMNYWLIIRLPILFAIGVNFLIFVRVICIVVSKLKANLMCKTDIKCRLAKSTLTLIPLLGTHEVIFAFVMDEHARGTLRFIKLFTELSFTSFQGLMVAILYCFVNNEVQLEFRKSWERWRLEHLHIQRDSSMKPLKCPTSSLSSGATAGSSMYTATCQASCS
T1 sequence (P01275 100-127 partner limits assumed): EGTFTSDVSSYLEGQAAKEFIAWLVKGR

EC20 GLP-1 (9-36) PAM Activity max cAMP	pEC50	SMILES
248 nM	5.89	COc1ccc(CC(=O)Nc2ccc(C(=O)N(CC(=O)O)Cc3ccc(OC(=O)c4ccc(-c5ccc(C)cc5)cc4)cc3)cc2)c(C(F)(F)F)c1 [Compound 192, 2-(4-(2-(4-methoxy-2-(trifluoromethyl)phenyl)acetamido)-N-(4-((4′-methyl-[1,1′-biphenyl]-4-carbonyl)oxy)benzyl)benzamido)acetic acid]
397 nM	5.68	CCCCCCCCc1ccc(C(=O)Oc2ccc(CN(CC(=O)O)C(=O)c3ccc(NC(=O)Cc4ccc(OC)cc4)cc3)cc2)cc1 [Compound 40, 2-(4-(2-(4-methoxyphenyl)acetamido)-N-(4-((4-octylbenzoyl)oxy)benzyl)benzamido)acetic acid]
252 nM	5.15	COc1ccc(CC(=O)Nc2ccc(C(=O)N(CC(=O)O)Cc3ccc(OC(=O)c4ccc(OCCC(C)C)cc4)cc3)cc2)cc1 [Compound 46, 2-(N-(4-((4-(isopentyloxy)benzoyl)oxy)benzyl)-4-(2-(4-methoxyphenyl)acetamido)benzamido) acetic acid]
371 nM	5.62	CCCCCCCOc1ccc(C(=O)Oc2ccc(CN(CC(=O)O)C(=O)c3ccc(NC(=O)Cc4ccc(C)c(OC)c4)cc3)cc2)cc1 [Compound 4, 2-(N-(4-((4-(heptyloxy)benzoyl)oxy)benzyl)-4-(2-(3-methoxy-4-methylphenyl)-acetamido)benzamido)acetic acid]
293 nM	5.92	CCCCCCCCCOc1ccc(C(=O)Oc2ccc(CN(CC(=O)O)C(=O)c3ccc(NC(=O)Cc4ccc(OC)cc4)cc3)cc2)cc1 [Compound 16, 2-(4-(2-(4-methoxyphenyl)acetamido)-N-(4-((4-(nonyloxy)benzoyl)oxy)benzyl)benzamido) acetic acid]
234 nM	5.57	COc1ccc(CC(=O)Nc2ccc(C(=O)N(CC(=O)O)Cc3ccc(-c4n[nH]c(-c5ccc(-c6ccc(C)cc6)cc5)n4)cc3)cc2)c(C(F)(F)F)c1 [Compound 361, 2-(4-(2-(4-methoxy-2-(trifluoromethyl)phenyl)acetamido)-N-(4-(5-(4′-methyl-[1,1′-biphenyl]-4-yl)-1H-1,2,4-triazol-3-yl)benzyl)benzamido)acetic acid]
281 nM	5.82	CCCCCCCCOc1ccc(C(=O)Oc2ccc(CN(CC(=O)O)C(=O)c3ccc(NC(=O)Cc4ccc(OC)cc4)cc3)cc2)cc1 [Compound 17, 2-(4-(2-(4-methoxyphenyl)acetamido)-N-(4-((4-(octyloxy)benzoyl)oxy)benzyl)benzamido) acetic acid]
307 nM	6.30	COc1ccc(CC(=O)Nc2ccc(C(=O)N(CC(=O)O)Cc3ccc(OC(=O)c4ccc(-c5ccc(C)cc5)cc4)cc3)c(OC)c2)c(C(F)(F)F)c1 [Compound 314, 2-(2-methoxy-4-(2-(4-methoxy-2-(trifluoromethyl)phenyl)acetamido)-N-(4-((4′-methyl-[1,1′-biphenyl]-4-carbonyl)oxy)benzyl)benzamido)acetic acid]
182 nM	5.51	CCCCCCOc1ccc(C(=O)Oc2ccc(CN(CC(=O)O)C(=O)c3ccc(NC(=O)Cc4ccc(OC)cc4)cc3)cc2)cc1 [Compound 18, 2-(N-(4-((4-(hexyloxy)benzoyl)oxy)benzyl)-4-(2-(4-methoxyphenyl)acetamido)benzamido) acetic acid]
273 nM	5.60	COc1ccc(CC(=O)Nc2ccc(C(=O)N(CC(=O)O)Cc3ccc(OC(=O)c4ccc(C5CCCCC5)cc4)cc3)cc2)cc1 [Compound 39, 2-(N-(4-((4-cyclohexylbenzoyl)oxy)benzyl)-4-(2-(4-methoxyphenyl)acetamido)benzamido) acetic acid]
